These results are taken from patent publication US20180338980A1, “AROMATIC SULFONAMIDE DERIVATIVES” (BAYER PHARMA AKTIENGESELLSCHAFT, priority 2015, published 2018).

The experiment concerns the target T1, P2X4 (Homo sapiens, UniProt Q99571).
T1 sequence (Q99571 1-388): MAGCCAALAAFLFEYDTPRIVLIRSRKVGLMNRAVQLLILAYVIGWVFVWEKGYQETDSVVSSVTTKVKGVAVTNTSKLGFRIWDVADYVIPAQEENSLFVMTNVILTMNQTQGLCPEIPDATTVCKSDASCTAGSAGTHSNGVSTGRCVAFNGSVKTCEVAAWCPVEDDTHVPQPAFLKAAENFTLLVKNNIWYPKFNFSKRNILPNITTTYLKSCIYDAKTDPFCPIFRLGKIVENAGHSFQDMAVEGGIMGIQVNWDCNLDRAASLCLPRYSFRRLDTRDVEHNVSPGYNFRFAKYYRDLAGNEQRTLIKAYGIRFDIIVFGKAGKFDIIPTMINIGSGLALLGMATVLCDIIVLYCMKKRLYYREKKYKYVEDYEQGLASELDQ
The experiment in a line: Assay B: human P2X4 receptor cell line, mitochondrial photina luminescence (agonist Bz-ATP at EC50). It counts as cell-based. Details: host or cells: HEK 293 (recombinant, constitutively expressing; with mitochondrial photina in Assay B). The following applies: HEK human P2X4 cell line, photina luminescence, agonist Bz-ATP at EC50, average; for Emax: read-out: human P2X4 Assay B avg Efficacy. The protocol: The identification of agonists and antagonists of the P2X4 receptor from humans and […] also the quantification of the activity of the compounds of the invention was performed by use of recombinant cell lines. […] The test cell lines constitutively express the mouse or human P2X4 receptors. Stimulation of the receptors with an agonist leads to a conformational change of P2X4 and influx of extracellular calcium ions through the ion channel. The cytoplasmatic calcium transient is detected via the calcium sensitive dye Fluo8 for the mouse P2×4 cell line or in case of the human P2×4 cell line a stably expressed calcium-sensitive photoprotein, mitochondrial photina, which, after reconstitution with the cofactor coelenterazine, emits light in dependence of calcium binding [Bovolenta S, Foti M, Lohmer S, Corazza S., J Biomol Screen. […] The strength of Fluo8 fluorescence signal or photina luminescence signal corresponds to the level of receptor activation. An inhibitor would decrease the signal depending on its potency and concentration.
The resulting light signal is measured immediately in the luminometer.

By IC50 is commonly meant the point on the concentration scale where inhibition reaches its midpoint. Turning to `CS(=O)(=O)c1ccc(COc2ccc(NC(=O)Cc3ccccc3Cl)cc2S(N)(=O)=O)cc1` [Example 147, 2-(2-Chlorophenyl)-N-(4-{[4-(methylsulfonyl)benzyl]oxy}-3-sulfamoylphenyl)acetamide], the IC50 turned out to be 1270 nM and the Emax worked out at 69%.

With `NS(=O)(=O)c1cc(NC(=O)Cc2ccccc2Cl)ccc1OCc1ccncn1` [Example 153, 2-(2-Chlorophenyl)-N-[4-(pyrimidin-4-ylmethoxy)-3-sulfamoylphenyl]acetamide], the IC50 was 327 nM and the Emax was 93%.

With `NS(=O)(=O)c1cc(NC(=O)Cc2ccccc2Cl)ccc1OCc1ncccn1` [Example 154, 2-(2-Chlorophenyl)-N-[4-(pyrimidin-2-ylmethoxy)-3-sulfamoylphenyl]acetamide], the IC50 turned out to be 252 nM and the Emax was 77%. For `NS(=O)(=O)c1cc(NC(=O)Cc2ccccc2Cl)ccc1OCC1COC1` [Example 159, 2-(2-Chlorophenyl)-N-[4-(oxetan-3-ylmethoxy)-3-sulfamoylphenyl]acetamide] the same measures were 1180 nM and 91%.

For the compound `NS(=O)(=O)c1cc(NC(=O)Cc2ccccc2Cl)ccc1OCC1CCCO1` (stereo not drawn) [Example 161, 2-(2-Chlorophenyl)-N-[3-sulfamoyl-4-(tetrahydrofuran-2-ylmethoxy)phenyl]acetamide], the IC50 was determined as 832 nM and the Emax is 74%. Consider `NS(=O)(=O)c1cc(NC(=O)Cc2ccccc2Cl)ccc1OCC1CCOC1` (stereo not drawn) [Example 162, 2-(2-Chlorophenyl)-N-[3-sulfamoyl-4-(tetrahydrofuran-3-ylmethoxy)phenyl]acetamide], for which the IC50 was found to be 335 nM and the Emax worked out at 66%. For `NS(=O)(=O)c1cc(NC(=O)Cc2ccccc2)cc(F)c1Oc1cccc(Cl)c1` [Example 170, N-[4-(3-Chlorophenoxy)-3-fluoro-5-sulfamoylphenyl]-2-phenylacetamide] the same measures were > 16000 nM and 36%. Take `Cc1ccccc1CC(=O)Nc1cc(F)c(Oc2cccc(Cl)c2)c(S(N)(=O)=O)c1` [Example 171, N-[4-(3-Chlorophenoxy)-3-fluoro-5-sulfamoylphenyl]-2-(2-methylphenyl)acetamide]: the IC50 was determined as 4910 nM and the Emax worked out at 65%. For `Cc1cccc(CC(=O)Nc2cc(F)c(Oc3cccc(Cl)c3)c(S(N)(=O)=O)c2)c1` [Example 172, N-[4-(3-Chlorophenoxy)-3-fluoro-5-sulfamoylphenyl]-2-(3-methylphenyl)acetamide] the same measures were 3240 nM and 63%. For `NS(=O)(=O)c1cc(NC(=O)Cc2cccnc2)ccc1Oc1cccc(Cl)c1` [Example 181, N-[4-(3-Chlorophenoxy)-3-sulfamoylphenyl]-2-(pyridin-3-yl)acetamide] the same measures were 2240 nM and 63%.

As for `CC(C(=O)Nc1ccc(Oc2cccc(Cl)c2)c(S(N)(=O)=O)c1)c1ccccc1` (stereo not drawn) [Example 184, N-[4-(3-Chlorophenoxy)-3-sulfamoylphenyl]-2-phenylpropanamide], the Emax turned out to be 53%. Consider `NS(=O)(=O)c1cc(NC(=O)Cc2cccc(Cl)c2)ccc1Oc1cccc(Cl)c1` [Example 186, N-[4-(3-Chlorophenoxy)-3-sulfamoylphenyl]-2-(3-chlorophenyl)acetamide], for which the IC50 came to 462 nM and the Emax was 97%.

In the case of `NS(=O)(=O)c1cc(NC(=O)Cc2ccncc2)ccc1Oc1cccc(Cl)c1` [Example 188, N-[4-(3-Chlorophenoxy)-3-sulfamoylphenyl]-2-(pyridin-4-yl)acetamide], the IC50 is 2560 nM and the Emax amounted to 71%.

With `Cc1cccc(CC(=O)Nc2ccc(Oc3cccc(Cl)c3)c(S(N)(=O)=O)c2)n1` [Example 189, N-[4-(3-Chlorophenoxy)-3-sulfamoylphenyl]-2-(6-methylpyridin-2-yl)acetamide], the IC50 is 429 nM and the Emax was determined as 54%.

`COc1ccc(CC(=O)Nc2ccc(Oc3cccc(Cl)c3)c(S(N)(=O)=O)c2)cc1` [Example 190, N-[4-(3-Chlorophenoxy)-3-sulfamoylphenyl]-2-(4-methoxyphenyl)acetamide]: the IC50 worked out at 171 nM and the Emax came to 65%. For `Cc1ccc(CC(=O)Nc2ccc(Oc3cccc(Cl)c3)c(S(N)(=O)=O)c2)nc1` [Example 193, N-[4-(3-Chlorophenoxy)-3-sulfamoylphenyl]-2-(5-methylpyridin-2-yl)acetamide] the same measures were 1060 nM and 79%. Turning to `C[C@H](C(=O)Nc1ccc(Oc2cccc(Cl)c2)c(S(N)(=O)=O)c1)c1ccccc1` [Example 194, (2S)—N-[4-(3-chlorophenoxy)-3-sulfamoylphenyl]-2-phenylpropanamide], the Emax was determined as 65%. Same read-out and setting: with `C[C@@H](C(=O)Nc1ccc(Oc2cccc(Cl)c2)c(S(N)(=O)=O)c1)c1ccccc1` [Example 195, (2R)—N-[4-(3-Chlorophenoxy)-3-sulfamoylphenyl]-2-phenylpropanamide] the figure was 64%. Turning to `COCCN(C)C(=O)c1ccccc1CC(=O)Nc1ccc(Oc2cccc(Cl)c2)c(S(N)(=O)=O)c1` [Example 197, 2-(2-{[4-(3-Chlorophenoxy)-3-sulfamoylphenyl]amino}-2-oxoethyl)-N-(2-methoxyethyl)-N-methylbenzamide], the IC50 was found to be 4120 nM and the Emax was found to be 68%. The matching figures for `CN(C)C(=O)c1ccccc1CC(=O)Nc1ccc(Oc2cccc(Cl)c2)c(S(N)(=O)=O)c1` [Example 198, 2-(2-{[4-(3-Chlorophenoxy)-3-sulfamoylphenyl]amino}-2-oxoethyl)-N,N-dimethylbenzamide]: 4740 nM and 60%. The matching figures for `NS(=O)(=O)c1cc(NC(=O)Cc2ccccc2)ccc1OC1CCCCC1` [Example 199, N-[4-(Cyclohexyloxy)-3-sulfamoylphenyl]-2-phenylacetamide]: 1960 nM and 70%.

Regarding `COCCNC(=O)c1cccc(CC(=O)Nc2ccc(Oc3cccc(Cl)c3)c(S(N)(=O)=O)c2)c1` [Example 201, 3-(2-{[4-(3-Chlorophenoxy)-3-sulfamoylphenyl]amino}-2-oxoethyl)-N-(2-methoxyethyl)benzamide], the IC50 worked out at 3300 nM and the Emax stood at 73%. The matching figures for `CNC(=O)c1cccc(CC(=O)Nc2ccc(Oc3cccc(Cl)c3)c(S(N)(=O)=O)c2)c1` [Example 203, 3-(2-{[4-(3-Chlorophenoxy)-3-sulfamoylphenyl]amino}-2-oxoethyl)-N-methylbenzamide]: 1350 nM and 69%. The matching figures for `NS(=O)(=O)c1cc(NC(=O)Cc2ccccc2)ccc1OC1CCC1` [Example 204, N-[4-(Cyclobutyloxy)-3-sulfamoylphenyl]-2-phenylacetamide]: 4040 nM and 60%. The matching figures for `NS(=O)(=O)c1cc(NC(=O)Cc2ccccc2Cl)ccc1OC1CCC1` [Example 205, 2-(2-Chlorophenyl)-N-[4-(cyclobutyloxy)-3-sulfamoylphenyl]acetamide]: 396 nM and 74%. For the compound `NS(=O)(=O)c1cc(NC(=O)Cc2ccccc2)ccc1OC1CCOCC1` [Example 206, 2-Phenyl-N-[3-sulfamoyl-4-(tetrahydro-2H-pyran-4-yloxy)phenyl]acetamide], the half-inhibitory concentration (IC50) amounted to 10800 nM and the Emax was 88%. The matching figures for `NS(=O)(=O)c1cc(NC(=O)Cc2ccc(Cl)cn2)ccc1Oc1cccc(Cl)c1` [Example 209, N-[4-(3-Chlorophenoxy)-3-sulfamoylphenyl]-2-(5-chloropyridin-2-yl)acetamide]: 742 nM and 64%.

In the case of `COCCOc1cccc(CC(=O)Nc2ccc(Oc3cccc(Cl)c3)c(S(N)(=O)=O)c2)c1` [Example 210, N-[4-(3-Chlorophenoxy)-3-sulfamoylphenyl]-2-[3-(2-methoxyethoxy)phenyl]acetamide], the IC50 came out at 491 nM and the Emax stood at 71%. The matching figures for `COCCOc1ccccc1CC(=O)Nc1ccc(Oc2cccc(Cl)c2)c(S(N)(=O)=O)c1` [Example 211, N-[4-(3-Chlorophenoxy)-3-sulfamoylphenyl]-2-[2-(2-methoxyethoxy)phenyl]acetamide]: 404 nM and 102%. Regarding `NS(=O)(=O)c1cc(NC(=O)Cc2cccc(OCCO)c2)ccc1Oc1cccc(Cl)c1` [Example 212, N-[4-(3-Chlorophenoxy)-3-sulfamoylphenyl]-2-[3-(2-hydroxyethoxy)phenyl]acetamide], the IC50 was 406 nM and the Emax worked out at 85%.
